In the case of `O=C1CN(N=Cc2ccc([N+](=O)[O-])o2)C(=O)N1CN1CCOCC1`, the melting point (as a rule, the temperature of the solid-liquid transition) turned out to be 206 °C.

For the compound `CC1(C)CC(=O)C(=NNc2cccc([N+](=O)[O-])c2)C(=O)C1`, the melting point was determined as 186 °C.

In the case of `CCOC(=O)c1ccccc1C(=O)OCC`, the melting point is -40.5 °C.

In turn, `Cc1noc(-c2ccccc2)c1CO` showed a melting point of 109 to 110 °C.

Regarding `CCOP(=S)(OCC)SCCSCC`, the melting point was -25 °C.

In the case of `Cc1cc(C(=O)CC#N)c(C)o1`, the melting point lay in the range of 120 to 122 °C.

Compound `CSc1cc(-c2ccc(Cl)cc2)c2c(=O)n(-c3ccccc3)n(C)c2c1` showed a melting point of 167 °C.

Turning to `CC12CCC3c4ccc(OC(=O)N(CCCl)CCCl)cc4CCC3C1CCC2O` (stereo not drawn), the melting point is 104 °C.

With `CC(=O)Nc1ccc2c(NC(C)=O)c(O)ccc2c1`, the melting point was determined as 235 °C.

In turn, `COC(=O)c1ccc(OC)c(Br)c1` came in with a melting point of 97 °C.

The compound `NC(=O)C1=CNCCC1` registered a melting point of 203 to 205 °C.

For the compound `CCCCCCCCC=CCCCCCCCC(=O)OC(=O)CCCCCCCC=CCCCCCCCC`, the melting point was 22 to 23 °C.

Regarding `O=C(O)C1OC(O)C(O)C(O)C1O` (stereo not drawn), the melting point fell in the range of 158 to 162 °C.

The compound `S=c1[nH]c2ccc(Cl)cc2o1` yielded a melting point of 229 to 232 °C.

Take `CCOC(OCC)C(N)=S`: the melting point lay within 91 to 94 °C.

Compound `O=C(c1ccccc1)c1ccc(O)c(O)c1` displayed a melting point of 144 to 148 °C.

In the case of `CCOC(=O)Cc1n[nH]c2ccc(Cl)cc12`, the melting point worked out at 77 °C.

For `CCCC1C2=C(OC(=O)C1(C)C)c1ccc(OC)cc1CC2` (stereo not drawn), the melting point is 129 °C.

The compound `NC(=S)c1ccc2occc2c1` came in with a melting point of 98.6 °C.

With `COc1cc(OC)c(C(C)=O)c(OC)c1`, the melting point was 103 °C.

Compound `COC(=O)c1sc(N2CCCCC2)c(C#N)c1N` yielded a melting point of 184 to 185 °C.

For `O=C(O)c1ccnc(N2CCCCC2)c1`, the melting point is 167 to 168 °C.

With `c1ccc(CN2CCc3c([nH]c4ccccc34)C2)cc1`, the melting point is 165 to 170 °C.

For `COC(=O)c1cc([N+](=O)[O-])ccc1Br`, the melting point is 81 °C.

In the case of `Brc1ccc(Oc2ccc(Br)c(Br)c2Br)c(Br)c1`, the melting point fell in the range of 119 to 121 °C.

On to `NNC(=O)C12CC3CC(CC(C3)C1)C2`, for which the melting point lay in the range of 151 to 153 °C.

In turn, `S=c1oc(-c2cc3ccccc3o2)nn1CCl` gave a melting point of 300 °C.

`COC(=O)c1ccc(OC)cc1O`: the melting point fell in the range of 49 to 53 °C.

For the compound `ClCOc1ccc(Cl)cc1`, the melting point was in the range of 29 to 30 °C.

Regarding `NNC(=O)c1csc(CS(=O)(=O)c2ccc(Cl)cc2)n1`, the melting point was 206 to 207 °C.

With `c1ccc(C2=NN(c3ccccc3)C2)cc1`, the melting point turned out to be 138 °C.

`CCOC(=O)c1cc(C)nc(Cl)n1` returned a melting point of 56.5 to 59 °C.

`CNC(=O)n1cc(F)c(=O)[nH]c1=O` displayed a melting point of 226 °C.

Turning to `CCOC(=O)/C(C#N)=C/c1ccc(-c2ccc(Cl)cc2)o1`, the melting point is 140 °C.

`CC(=O)OC1CC[C@@]2(C)C(CC[C@@H]3[C@@H]2CC[C@@]2(C)[C@H]3CC[C@@]2(C#Cc2ccccc2)OC(C)=O)C1` (stereo partly drawn) yielded a melting point of 166 °C.

Take `COP(=S)(OC)SCC(=O)N(c1ccc(Cl)cc1)C(C)C`: the melting point was 51 °C.

In the case of `CCC(O)(CC)C(=O)O`, the melting point was 78 to 82 °C.

Consider `Brc1ccc(Br)nc1`, for which the melting point stood at 94 °C.

`O=c1[nH]c(=O)n(C2CC(O)C(CO)O2)cc1I` (stereo not drawn) displayed a melting point of 263 °C.

`Nc1nn2c(-c3ccccc3)cc(=O)[nH]c2c1/N=N/c1ccc(Cl)cc1` had a melting point of 312 °C.

Take `COC(=O)c1ccccn1`: the melting point was determined as 18.7 °C.

`O=C(NN=Cc1ccc([N+](=O)[O-])o1)c1ccc(O)cc1` came in with a melting point of 298 °C.

Take `OCc1ccc(-c2ccsc2)cc1`: the melting point is 152 to 154 °C.

`ClC1=C(Cl)C(Cl)(Cl)C(Cl)=C1Cl` gave a melting point of -9 °C.

In turn, `CC1=Cc2ccccc2C1` registered a melting point of 80 °C.

`C1CCCC2OC2CC1` (stereo not drawn) yielded a melting point of 53 to 56 °C.

In turn, `COc1ccc(C2(C(=O)O)CCCCC2)cc1` yielded a melting point of 172 to 177 °C.

In the case of `CC(=O)/N=c1\sc(C(C)=O)nn1-c1ccccc1[N+](=O)[O-]`, the melting point was found to be 184 °C.

Take `Cc1nccn1-c1ccccc1CN`: the melting point was in the range of 48 to 48.5 °C.

`Clc1cc2oc3c(Cl)cc(Cl)c(Cl)c3c2cc1Cl` gave a melting point of 237 °C.

With `O=C(CBr)c1ccc2c(c1)OCO2`, the melting point was 91 to 93 °C.

For the compound `CC(=O)C1(O)CCC2(C)C(CCC3C4CCC(=O)C4(C)CCC32)C1` (stereo not drawn), the melting point fell in the range of 211 to 212 °C.

`NC(=O)c1cccnc1Sc1ccc(Cl)cc1` gave a melting point of 209 to 211 °C.

In turn, `CN(CC(=O)O)C(=O)c1ccccc1` gave a melting point of 101 to 105 °C.

`Cc1ccc(CBr)cc1` yielded a melting point of 35 °C.

Compound `NC(=O)NN=C(c1cc2ccccc2o1)c1cc2ccccc2o1` had a melting point of 189 to 190 °C.

On to `c1ccc(-c2oc(-c3ccccc3)c3ccccc23)cc1`, for which the melting point amounted to 135 °C.

The compound `O=C(O)C=Cc1ccco1` had a melting point of 143 °C.

`Nc1c([N+](=O)[O-])cccc1[N+](=O)[O-]`: the melting point was found to be 142 °C.

`N[C@H](Cc1ccc(I)cc1)C(=O)O` displayed a melting point of 251 °C.

Regarding `Cc1ccc2c(-c3ccccc3)nc(=O)n(C(C)C)c2c1`, the melting point turned out to be 138 °C.

For the compound `COc1ccn(C)c(=O)c1C#N`, the melting point turned out to be 202 °C.

Take `O=C(NCCc1c[nH]cn1)C1=NC=NC1`: the melting point came out at 176 °C.

Turning to `CCC(=O)C1CCCCC1C(C)(C)C(=O)O` (stereo not drawn), the melting point was determined as 115 °C.

Regarding `Cc1ccc(S(=O)(=O)C2(C(=O)OC(C)C)CC2)cc1`, the melting point stood at 65.5 °C.

In turn, `COCCN1CCCNCC1` showed a melting point of 67 °C.

As for `COc1ccc(OC)c(C=C[N+](=O)[O-])c1`, the melting point was 114 to 119 °C.

`C#CCOC(=O)C(C)Oc1ccc(Oc2ncc(Cl)cc2F)cc1` (stereo not drawn) displayed a melting point of 59.5 °C.

For the compound `CC(=O)c1c(C)c([N+](=O)[O-])c(C(C)(C)C)c([N+](=O)[O-])c1C`, the melting point was determined as 136 °C.

Turning to `N#Cc1cnn2c(C(F)(F)F)cc(C(F)(F)F)nc12`, the melting point is 75 to 77 °C.

For the compound `CC12CCC3C(CCC4CC(O)(C#CCl)CCC43C)C1CCC2O` (stereo not drawn), the melting point was 120 °C.

The compound `COc1ccccc1N/N=C(\C#N)c1nc2ccccc2n1C` registered a melting point of 200 to 202 °C.

In turn, `Cc1cc(C)c(Cl)c(O)c1Cl` had a melting point of 87.5 °C.

As to `O=C1CCCc2occc21`, the melting point is 60.5 to 61.5 °C.

`COc1ccc(-c2csc(/C(C#N)=N\Nc3ccc(C)cc3)n2)cc1` returned a melting point of 151 °C.

The compound `Nc1cc2c(cc1Cl)C(=O)c1ccccc1C2=O` registered a melting point of 282 °C.

Turning to `ClCc1nnc(-c2ccc3ccccc3c2)o1`, the melting point is 128 to 130 °C.

In turn, `C[Si]1(c2ccccc2)O[Si](C)(c2ccccc2)O[Si](C)(c2ccccc2)O1` (stereo not drawn) had a melting point of 100 °C.

In turn, `CC1C(NC(=O)C(=NOC(C)(C)C(=O)O)c2csc(N)n2)C(=O)N1S(=O)(=O)O` (stereo not drawn) yielded a melting point of 277 °C.

`O=[N+]([O-])c1ccc(-c2nnc3n2NC(c2ccc([N+](=O)[O-])cc2)S3)cc1` (stereo not drawn) came in with a melting point of 229 °C.

Regarding `O=C(O)c1cccnc1Cl`, the melting point is 176 to 178 °C.

For the compound `CC12CCC(C(C(=O)c3ccccc3)C1=O)C2(C)C` (stereo not drawn), the melting point is 98 °C.

Compound `C1CCN2CC3CC(CN4CCCCC34)C2C1` (stereo not drawn) displayed a melting point of 30.5 °C.

Regarding `NCCOS(=O)(=O)O`, the melting point was 277 to 280 °C.

The compound `O=C1NN=C(C(F)(F)F)C1=NNc1cc(Cl)ccc1Cl` showed a melting point of 214 °C.

For the compound `COC(=O)C1(C(=O)OC)Cc2cc(OC)ccc2C(=O)O1`, the melting point was 134 °C.

As to `CCCC(=O)OC(=O)CCC`, the melting point is -73 °C.

The compound `CC(=O)Nc1ccc(C2=NN(c3ccccc3)C(=O)/C2=C/C2C(=O)N(c3ccccc3)N=C2c2ccc(NC(C)=O)cc2)cc1` (stereo not drawn) displayed a melting point of 317 °C.

`CCC1CC(=O)CC(C)(C)N1O` (stereo not drawn) displayed a melting point of 33 to 38 °C.

`c1ccc(-c2c(-c3[nH]c4ccccc4c3-c3ccccc3)[nH]c3ccccc23)cc1`: the melting point is 227 °C.

`O=Nc1c(-c2ccc([N+](=O)[O-])cc2)nc2ncccn12` registered a melting point of 191 °C.

`C#CCl`: the melting point is -126 °C.

In turn, `CCc1cc2cc(OC)c(OC)cc2c(Cc2ccccc2)n1` came in with a melting point of 78 °C.

Compound `O=C(O)Cc1ccccc1C(=O)O` showed a melting point of 178 to 182 °C.

For `CC(O)CC(C)(C)O` (stereo not drawn), the melting point was -40 °C.

In turn, `O=C(CCl)Nc1cccc(Cl)c1Cl` displayed a melting point of 104 to 106 °C.

`O=C(O)c1ccc2c(c1)OC(F)(F)O2` came in with a melting point of 156 °C.

Consider `CC1(C)OC(=O)C(=NNc2ccccc2[N+](=O)[O-])C(=O)O1`, for which the melting point was 165 °C.

The compound `CC(=O)Nc1ccc(Br)c(Cl)c1` yielded a melting point of 125 to 128 °C.

`Brc1cccc(Cn2ccnc2)c1` yielded a melting point of 62 to 70 °C.

`ON=CC=Cc1ccccc1` yielded a melting point of 115 to 125 °C.

`COc1cc2c(cc1OC)C(c1ccccc1)=NCC2`: the melting point was 121 to 125 °C.

For `COc1cccc2c1C(=O)c1c(O)c3c(c(O)c1C2=O)CC(O)(C(C)=O)CC3OC1CC(N)C(O)C(C)O1` (stereo not drawn), the melting point was determined as 208 °C.

The compound `CCCCCCCOc1ccc(C(=O)O)cc1` yielded a melting point of 146 °C.

`CC1(C)CC(=O)C2=C(C1)Nc1ccc3ccccc3c1C2c1ccc(F)cc1` (stereo not drawn) displayed a melting point of 204 °C.

`COc1ccc(-n2nc(C(=O)c3cccs3)s/c2=N/C(=O)c2ccccc2)cc1`: the melting point was found to be 235 °C.

`CCCCCNc1cc(=O)oc2ccccc12`: the melting point is 163 °C.

With `O=C(O)c1ccc(Cn2cccn2)cc1`, the melting point was in the range of 192 to 193 °C.
